This note sets out measurements from ChEMBL document CHEMBL1139559, “Radical scavenging activity of protein from tentacles of jellyfish Rhopilema esculentum” (Bioorg Med Chem Lett, 2005).

In general, EC50 refers to the concentration needed to bring the measured effect to its halfway point. Higher therefore signals a less potent agent.

Structures are written as SMILES. Converted amounts (≈) assume the structure as drawn.

Assay [1] is described as follows: Effective concentration required for scavenging of superoxide anion radical generation from the tentical protein of jellyfish. The class given is functional, Rhopilema esculentum.
Assay [2] is described as follows: Effective concentration required for scavenging of hydroxyl radical generation from the tentical protein of jellyfish. The class given is functional, Rhopilema esculentum.

`Cc1c(C)c2c(c(C)c1O)CC[C@@](C)(CCC[C@H](C)CCC[C@H](C)CCCC(C)C)O2` [ALPHA-TOCOPHEROL] yielded an EC50 in assay [1] of 88 µg/mL (≈ 204 µM).
Still for that read-out and setting: with `COc1ccc(O)c(C(C)(C)C)c1.COc1ccc(O)cc1C(C)(C)C` [BUTYLATED HYDROXYANISOLE] the figure was 31 µg/mL.
`Cc1cc(C(C)(C)C)c(O)c(C(C)(C)C)c1` [BUTYLATED HYDROXYTOLUENE] showed an EC50 in assay [1] of 61 µg/mL (≈ 277 µM).
Turning to `OC[C@@H](O)[C@@H](O)[C@H](O)[C@H](O)CO` [MANNITOL], the EC50 in assay [2] was determined as 4536 µg/mL (≈ 24900 µM).
